The source of these data is patent publication US20100311751A1, “SOLID DISPERSIONS CONTAINING AN APOPTOSIS-PROMOTING AGENT” (ABBOTT LABORATORIES, priority 2009, published 2010).

A short description of the data set: solubility in water. Format: physicochemical. The following applies: pH 2. The source says: Examples of such active ingredients are, for example, Biopharmaceutics Classification System (BCS) Class IV drug substances that are characterized by low solubility and low permeability (see “Waiver of in vivo bioavailability and bioequivalence studies for immediate-release solid oral dosage forms based on a biopharmaceutics classification system”, U.S. Department of Health and Human Services, Food and Drug Administration, Center for Drug Evaluation and Research (CDER), August 2000). It will be recognized that aqueous solubility of many compounds is pH-dependent; in the case of such compounds the solubility of interest herein is at a physiologically relevant pH, for example a pH of about 1 to about 8.

Turning to `CC1(C)CCC(c2ccc(Cl)cc2)=C(CN2CCN(c3ccc(C(=O)NS(=O)(=O)c4ccc(N[C@H](CCN5CCOCC5)CSc5ccccc5)c(S(=O)(=O)C(F)(F)F)c4)cc3)CC2)C1` [ABT-263], the solubility in water entry was “less than 4 μg/ml”.
